Measurements reported in ChEMBL document CHEMBL1201862, “PubChem BioAssay data set” (2004).
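Dose response: 5 concentrations. Exposure: 48 h. Format: 96-well plates. Endpoint: linear interpolation; highest concentration if not reached. GI50 marks 50% less growth.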 The source made the active and inactive calls. Cut-off read from the data, not from the text of the source: active = GI50 up to about 1.1 µM and inactive = higher.

Tests used:
Assay in all cases: NCI tumour cell line growth inhibition, 48 h
A498 = system: A498
A549 = system: A549
CAKI-1 = system: CAKI-1
HCC 2998 = system: HCC 2998
HCT-15 = system: HCT-15
HOP-62 = system: HOP-62
IGROV-1 = system: IGROV-1
KM12 = system: KM12
LOX IMVI = system: LOX IMVI
MOLT-4 = system: MOLT-4
OVCAR-4 = system: OVCAR-4
RPMI-8226 = system: RPMI-8226
RXF 393 = system: RXF 393
SF-268 = system: SF-268
SF-539 = system: SF-539
U-251 = system: U-251
UACC-257 = system: UACC-257
MDA-MB-231 = system: MDA-MB-231
DU-145 = system: DU-145

Compound | GI50 (A498) | GI50 (A549) | GI50 (CAKI-1) | GI50 (HCC 2998) | GI50 (HCT-15) | GI50 (HOP-62) | GI50 (IGROV-1) | GI50 (KM12) | GI50 (LOX IMVI) | GI50 (MOLT-4) | GI50 (OVCAR-4) | GI50 (RPMI-8226) | GI50 (RXF 393) | GI50 (SF-268) | GI50 (SF-539) | GI50 (U-251) | GI50 (UACC-257) | GI50 (MDA-MB-231) | GI50 (DU-145)
CC(=O)NC(CCCN(Cc1ccccc1)C(=O)N(C)N=O)C(=O)NCc1ccccc1 (configuration not stated) | > 100 µM (inactive) | > 100 µM (inactive) | > 100 µM (inactive) | > 100 µM (inactive) | > 100 µM | > 100 µM (inactive) | > 100 µM (inactive) | > 100 µM (inactive) | > 100 µM (inactive) | 57.1 µM (inactive) | > 100 µM (inactive) | > 100 µM (inactive) | > 100 µM (inactive) | 95.3 µM (inactive) | > 100 µM (inactive) | > 100 µM (inactive) | > 100 µM (inactive) |  | 
CN(C)CCOC1(Cc2ccc(Cl)cc2Cl)CCC(C(C)(C)C)CC1 (configuration not stated) | 1.83 µM (inactive) | 2.23 µM (inactive) | 15.9 µM (inactive) | 1.57 µM (inactive) |  | 1.84 µM (inactive) | 1.83 µM (inactive) | 1.72 µM (inactive) | 1.78 µM (inactive) | 1.85 µM (inactive) | 2.42 µM (inactive) | 1.6 µM (inactive) | 1.97 µM (inactive) | 3.01 µM (inactive) | 2.02 µM (inactive) | 1.88 µM (inactive) | 1.11 µM (active) | 1.77 µM (inactive) | 
COc1ccc(-n2sc3ncc(-c4ccccc4)cc3c2=O)cc1 | > 100 µM (inactive) | 35.9 µM (inactive) | 27.4 µM (inactive) | 92.7 µM (inactive) | 35.6 µM | > 100 µM (inactive) | 22.1 µM (inactive) | 50 µM (inactive) | 32.1 µM (inactive) |  | 23.3 µM (inactive) | 18.2 µM (inactive) | 40.2 µM (inactive) |  |  | 27.6 µM (inactive) | 57.8 µM (inactive) |  | 61.7 µM (inactive)
CCSCN(C)c1nc(N(C)C)nc(N(C)C)n1 | 47.8 µM (inactive) | 55.2 µM (inactive) | 68.2 µM (inactive) | > 100 µM (inactive) | 42.5 µM | 98.2 µM (inactive) | 78.7 µM (inactive) | 35.3 µM (inactive) | 41.3 µM (inactive) | 46.8 µM (inactive) | 72.3 µM (inactive) | 49.1 µM (inactive) | 14.2 µM (inactive) | > 100 µM (inactive) | 36.1 µM (inactive) | 54.2 µM (inactive) | 43 µM (inactive) |  | 
CCc1cccc(C)c1NC(=O)CCc1nnc2s/c(=C\c3cccc4ccccc34)c(=O)n12 | > 100 µM (inactive) | > 100 µM (inactive) | > 100 µM (inactive) | > 100 µM (inactive) | 89.1 µM | > 100 µM (inactive) | > 100 µM (inactive) | 92.7 µM (inactive) | 80.7 µM (inactive) | 17.9 µM (inactive) | > 100 µM (inactive) | 23.8 µM (inactive) | > 100 µM (inactive) | > 100 µM (inactive) | > 100 µM (inactive) | > 100 µM (inactive) | > 100 µM (inactive) |  | 
CCN(CC)CC(C)C(=O)/C=C/c1ccc(C)cc1 (configuration not stated) | 4.74 µM (inactive) | 3.77 µM (inactive) | 1.22 µM (inactive) | 3.13 µM (inactive) | 2.53 µM | 18.4 µM (inactive) | 2.2 µM (inactive) | 0.502 µM (active) | 1.29 µM (inactive) | 2.52 µM (inactive) | 2.23 µM (inactive) | 1.64 µM (inactive) | 2.19 µM (inactive) | 2.1 µM (inactive) | 2.05 µM (inactive) | 1.76 µM (inactive) | 2.23 µM (inactive) |  | 
COc1ccc2ccc([Se]c3ccc4ccc(OC)cc4c3)cc2c1 | > 100 µM (inactive) | > 100 µM (inactive) | 38.7 µM (inactive) | > 100 µM (inactive) | > 100 µM | > 100 µM (inactive) | > 100 µM (inactive) | 51.9 µM (inactive) | > 100 µM (inactive) | 63.2 µM (inactive) | 20.6 µM (inactive) | 49.9 µM (inactive) | 70 µM (inactive) | 61.1 µM (inactive) | > 100 µM (inactive) | 29.9 µM (inactive) | > 100 µM (inactive) |  | 
